Measurements published in patent US9394268B2, “(E)-1-(5-methoxy-2,2-dimethyl-2H-chromen-8-yl)-3-(4-methoxyphenyl)prop-2-en-1-one and analogs thereof, as well as preparation method and use thereof” (Sichuan University, priority 2012, dated 2016).

How the values were obtained:
Assay type in all cases: cell-based
[1] = system: SW620; experiment: Cell proliferative assay (MTT), SW620; details: Homo sapiens, SW-620, 72 h incubation, read-out: IC50s SW620
Protocol: (§1) The synthesized compounds were evaluated for their cytotoxin activity against suspended tumor cells. These cells were seeded on 96-well plates and incubated for 24 h. Selected compounds were added at various doses and incubated for 72 h, MTT was then added, and the absorbance was measured at a wavelength of 590 nm. IC50 values are expressed as the mean±SEM from the dose-response curves of at least three independent experiments.

[2] = system: K562; experiment: Cell proliferative assay (MTT), K562; details: Homo sapiens, 72 h incubation, read-out: IC50s K562
Protocol: as §1

[3] = system: HepG2; experiment: Cell proliferative assay (MTT), HepG2; details: Homo sapiens, 72 h incubation, read-out: IC50s HepG2
Protocol: as §1

[4] = system: HT29; experiment: Cell proliferative assay (MTT), HT29; details: Homo sapiens, HT-29, 72 h incubation, read-out: IC50s HT29
Protocol: as §1

[5] = system: HCT116; experiment: Cell proliferative assay (MTT), HCT116; details: Homo sapiens, HCT-116, 72 h incubation, read-out: IC50s HCT116
Protocol: as §1

[6] = system: SMMC-7221; experiment: Cell proliferative assay (MTT), SMMC-7221; details: 72 h incubation, read-out: IC50s SMMC-7221
Protocol: as §1

[7] = system: A375; experiment: Cell proliferative assay (MTT), A375; details: Homo sapiens, A-375, 72 h incubation, read-out: IC50s A375
Protocol: as §1

[8] = system: A549; experiment: Cell proliferative assay (MTT), A549; details: Homo sapiens, 72 h incubation, read-out: IC50s A549
Protocol: as §1

[9] = system: LO2; experiment: Cell proliferative assay (MTT), LO2; details: Homo sapiens, L02, 72 h incubation, read-out: IC50s LO2
Protocol: as §1

IC50 [1] [µM]	IC50 [2] [µM]	IC50 [3] [µM]	IC50 [4] [µM]	IC50 [5] [µM]	IC50 [6] [µM]	IC50 [7] [µM]	IC50 [8] [µM]	Structure (SMILES)	IC50 [9] [µM]
> 10	> 10	> 10	> 10	> 10	–	–	–	COc1cccc(/C=C/C(=O)c2ccc(OC)c3c2OC(C)(C)C=C3)c1 [SKLBC-2, (E)-1-(5-methoxy-2,2-dimethyl-2H-chromen-8-yl)-3-(3-methoxyphenyl)prop-2-en-1-one]	–
9.15	> 10	> 10	> 10	7.65	–	–	–	COc1ccc(C(=O)/C=C/c2cc(OC)c(OC)c(OC)c2)c2c1C=CC(C)(C)O2 [SKLBC-3, (E)-1-(5-methoxy-2,2-dimethyl-2H-chromen-8-yl)-3-(3,4,5-trimethoxyphenyl)prop-2-en-1-one]	–
> 10	> 10	> 10	> 10	> 10	–	–	–	COc1cc(OC)c(OC)cc1/C=C/C(=O)c1ccc(OC)c2c1OC(C)(C)C=C2 [SKLBC-5, (E)-1-(5-methoxy-2,2-dimethyl-2H-chromen-8-yl)-3-(2,4,5-trimethoxyphenyl)prop-2-en-1-one]	–
> 10	> 10	> 10	> 10	> 10	–	–	–	COc1ccc(C(=O)/C=C/c2ccc(F)cc2)c2c1C=CC(C)(C)O2 [SKLBC-6, (E)-3-(4-fluorophenyl)-1-(5-methoxy-2,2-dimethyl-2H-chromen-8-yl)prop-2-en-1-one]	–
> 10	> 10	> 10	> 10	1.92	–	–	–	COc1ccc(C(=O)/C=C/c2cccc(F)c2)c2c1C=CC(C)(C)O2 [SKLBC-7, (E)-3-(3-fluorophenyl)-1-(5-methoxy-2,2-dimethyl-2H-chromen-8-yl)prop-2-en-1-one]	–
> 10	> 10	> 10	> 10	5.82	–	–	–	COc1ccc(C(=O)/C=C/c2ccc(Br)cc2)c2c1C=CC(C)(C)O2 [SKLBC-8, (E)-3-(4-bromophenyl)-1-(5-methoxy-2,2-dimethyl-2H-chromen-8-yl)prop-2-en-1-one]	–
> 10	> 10	> 10	> 10	> 10	–	–	–	COc1ccc(C(=O)/C=C/c2ccc(-c3ccccc3)cc2)c2c1C=CC(C)(C)O2 [SKLBC-11, (E)-3-([1,1′-biphenyl]-4-yl)-1-(5-methoxy-2,2-dimethyl-2H-chromen-8-yl)prop-2-en-1-one]	–
> 10	> 10	> 10	> 10	4.53	–	–	–	COc1ccc(C(=O)/C=C/c2ccc(N(c3ccccc3)c3ccccc3)cc2)c2c1C=CC(C)(C)O2 [SKLBC-13, (E)-3-(4-(diphenylamino)phenyl)-1-(5-methoxy-2,2-dimethyl-2H-chromen-8-yl)prop-2-en-1-one]	–
> 10	> 10	> 10	6.6	8.05	–	–	–	COc1ccc(C(=O)/C=C/c2ccc(-n3ccnc3)cc2)c2c1C=CC(C)(C)O2 [SKLBC-15, (E)-3-(4-(1H-imidazol-1-yl)phenyl)-1-(5-methoxy-2,2-dimethyl-2H-chromen-8-yl)prop-2-en-1-one]	–
> 10	> 10	> 10	> 10	> 10	–	–	–	COc1ccc(C(=O)/C=C/c2ccc(C(F)(F)F)cc2)c2c1C=CC(C)(C)O2 [SKLBC-19, (E)-1-(5-methoxy-2,2-dimethyl-2H-chromen-8-yl)-3-(4-(trifluoromethyl)phenyl)prop-2-en-1-one]	–
> 10	> 10	> 10	> 10	> 10	–	–	–	COc1ccc(C(=O)/C=C/c2ccccc2)c2c1C=CC(C)(C)O2 [SKLBC-20, (E)-1-(5-methoxy-2,2-dimethyl-2H-chromen-8-yl)-3-phenylprop-2-en-1-one]	–
–	> 10	> 10	–	–	> 10	> 10	> 10	CCCCC(=O)Nc1cc(/C=C/C(=O)c2ccc(OC)c3c2OC(C)(C)C=C3)ccc1OC [SKLBC-95, (E)-N-(2-methoxy-5-(3-(5-methoxy-2,2-dimethyl-2H-chromen-8-yl)-3-oxoprop-1-en-1-yl)phenyl)pentanamide]	> 20
–	> 10	> 10	–	–	> 10	> 10	> 10	COc1ccc(/C=C/C(=O)c2ccc(OC)c3c2OC(C)(C)C=C3)cc1NC(=O)C(C)C [SKLBC-96, (E)-N-(2-methoxy-5-(3-(5-methoxy-2,2-dimethyl-2H-chromen-8-yl)-3-oxoprop-1-en-1-yl)phenyl)isobutyramide]	> 20
–	> 10	> 10	–	–	> 10	> 10	> 10	COc1ccc(/C=C/C(=O)c2ccc(OC)c3c2OC(C)(C)C=C3)cc1NC(=O)Cc1cccc(C(F)(F)F)c1 [SKLBC-97, (E)-N-(2-methoxy-5-(3-(5-methoxy-2,2-dimethyl-2H-chromen-8-yl)-3-oxoprop-1-en-1-yl)phenyl)-2-(3-(trifluoromethyl)phenyl)acetamide]	> 10
–	7.85	3.6	–	–	9.2	2.4	8.6	COc1ccc(/C=C/C(=O)c2ccc(OC)c3c2OC(C)(C)C=C3)cc1NC(N)=O [SKLBC-98, (E)-1-(2-methoxy-5-(3-(5-methoxy-2,2-dimethyl-2H-chromen-8-yl)-3-oxoprop-1-en-1-yl)phenyl)urea]	> 10
–	8.85	10	–	–	5.6	9	> 10	COc1ccc(/C=C/C(=O)c2ccc(OC)c3c2OC(C)(C)C=C3)cc1NS(C)(=O)=O [SKLBC-99, (E)-N-(2-methoxy-5-(3-(5-methoxy-2,2-dimethyl-2H-chromen-8-yl)-3-oxoprop-1-en-1-yl)phenyl)methanesulfonamide]	9.8
–	> 10	> 10	–	–	> 10	> 10	> 10	COc1ccc(/C=C/C(=O)c2ccc(OC)c3c2OC(C)(C)C=C3)cc1NS(=O)(=O)C1CC1 [SKLBC-100, (E)-N-(2-methoxy-5-(3-(5-methoxy-2,2-dimethyl-2H-chromen-8-yl)-3-oxoprop-1-en-1-yl)phenyl)cyclopropanesulfonamide]	> 20
–	> 10	> 10	–	–	6.8	> 10	> 10	COc1ccc(/C=C/C(=O)c2ccc(OC)c3c2OC(C)(C)C=C3)cc1NS(=O)(=O)c1ccc(C)cc1 [SKLBC-101, (E)-N-(2-methoxy-5-(3-(5-methoxy-2,2-dimethyl-2H-chromen-8-yl)-3-oxoprop-1-en-1-yl)phenyl)-4-methylbenzenesulfonamide]	> 10
–	> 10	> 10	–	–	> 10	> 10	> 10	COc1ccc(/C=C/C(=O)c2ccc(OC)c3c2OC(C)(C)C=C3)cc1NS(=O)(=O)Cc1ccccc1 [SKLBC-102, (E)-N-(2-methoxy-5-(3-(5-methoxy-2,2-dimethyl-2H-chromen-8-yl)-3-oxoprop-1-en-1-yl)phenyl)-1-phenylmethanesulfonamide]	> 20
